Patent US8410130B2, “Synthesis of 8H-3A-aza-cyclopenta [A ]indenes and 5,10-dihydropyrrolo[1,2-B]isoquinolines derivatives and their use as antitumor therapeutic agents” (Academia Sinica, priority 2007, dated 2013)
Like-named read-outs stand apart in the source and are kept apart here.

How the values were obtained:
[1] = test system: CCRF-CEM human lymphoblastic leukemia cells; test: In vitro cytotoxicity, XTT assay, 72-hr incubation; type: cell-based
Source text: (§1) Human colon carcinoma HCT-116 cells, human prostate adenocarcinoma PC-3 and adenocarcinoma SK-OV-3 cells were obtained from American Type Culture Collection (ATCC, Rockville, Md.). Human mammary carcinoma (MX-1) tumor cells were obtained from MSKCC cell bank. The CCRF-CEM human lymphoblastic leukemia cells and their vinblastine resistant subline (CCRF-CEM/VBL, 680-fold resistance in vitro) were obtained from Dr. William Beck of the University of Illinois, Chicago, and CCRF-CEM/Taxol (330-fold resistance in vitro). Resistant cells CCRF-CEM/taxol were produced by exposing the parent cells to increasing sublethal concentration (IC50-IC90) of paclitaxel for six months.
(§2) In preparation for in vitro cytotoxicity assays, cells were cultured at an initial density 2-5×10^4 cells per milliliter. They were maintained in a 5% CO2-humidified atmosphere at 37° C. in RPMI medium 1640 (GIBCO/BRL) containing penicillin (100 units/mL), streptomycin (100 μg/mL, GIBCO/BRL), and 5% heat-inactivated FBS. For cells grown in suspension (such as CCRF-CEM and its sublines), cytotoxicity was measured, by using XTT microculture method in 96-well microtiter plates (Scudiero D A et al., Cancer Res. 1988, 48, 4827-4833). For solid tumor cells growing in a monolayer (such as MX-1 and HCT-116), cytotoxicity of the drug was determined, in duplicate, in 96-well microtiter plates by using the sulforhodamine B method (Skehan P et al., J. Natl. Cancer Inst 1990, 82, 1107-1112). For both methods, the absorbance of each well was measured with a microplate reader (Power Wave XS, Bio-Tek, Winooski, Vt.) after 72-hr incubation as described previously (Chou T-C et al., Proc. Natl. Acad. Sci. USA 2001, 98, 8113-8118). Dose-effect relationship data from 6 to 7 concentrations of each drug, in duplicate, were analyzed by using a computer program (Chou T-C et al., ComboSyn, Inc., Paramus, N J. 2005) based on the median-effect principle and plot (Chou T-C et al., Adv. Enzyme Regul. 1984, 22, 27-55; Chou T-C, Pharmacol. Rev. 2006, 58, 621-681).
(§3) The IC50 is defined by the concentration required to inhibit tumor cell growth by 50%. […] The growth inhibition of the compounds disclosed herein against human lymphoblastic leukemic cells (CCRF-CEM) and its drug-resistant sublines (resistant to vinblastine and taxol, CCRF-CEM/VBL and CCRF-CEM/taxol, respectively) is also shown in Table 5. […] Thus, the compounds disclosed herein are effective against multiple drug resistant tumors.

CCRF-CEM/VBL = test: In vitro cytotoxicity, XTT assay, vinblastine resistant subline; type: cell-based, human; settings: for IC50: XTT assay, 72-hr incubation; for fold of cross-resistant, CCRF-CEM/VBL vs IC50 of the parent cell line: numbers in brackets
Source text: as §1, §2, §3

[2] = test system: Human colon carcinoma HCT-116 cells; test: In vitro cytotoxicity, sulforhodamine B (SRB) assay; type: cell-based
Source text: as §1, §2, §3

[3] = test system: Human mammary carcinoma (MX-1) tumor cells; test: as above; type: cell-based; settings: 72-hr incubation
Source text: as §1, §2, §3

CCRF-CEM/Taxol = test: In vitro cytotoxicity, XTT assay, taxol resistant subline; type: cell-based, human; settings: for IC50: XTT assay, 72-hr incubation; for fold of cross-resistant, CCRF-CEM/Taxol vs IC50 of the parent cell line: numbers in brackets
Source text: as §1, §2, §3

[4] = Homo sapiens, HCT-116, 72-hr incubation

SMILES	IC50 ([1]; Homo sapiens, CCRF-CEM) [nM]	IC50 (CCRF-CEM/VBL; Homo sapiens, CCRF-CEM) [nM]	fold of cross-resistant, CCRF-CEM/VBL vs IC50 of the parent cell line (CCRF-CEM/VBL)	IC50 [2, 4] [nM]	IC50 ([3]; Homo sapiens) [nM]	IC50 (CCRF-CEM/Taxol; Homo sapiens, CCRF-CEM) [nM]	fold of cross-resistant, CCRF-CEM/Taxol vs IC50 of the parent cell line (CCRF-CEM/Taxol)	IC50 [1] [nM]	IC50 (CCRF-CEM/VBL) [nM]	IC50 ([2]; 72-hr incubation) [nM]	IC50 [3] [nM]	IC50 (CCRF-CEM/Taxol) [nM]
COc1ccc(-c2c(CO)c(CO)c3n2-c2ccccc2C3)cc1OC [DA-1097, (3-(3,4-Dimethoxyphenyl)-2-hydroxymethyl-8H-3a-aza-cyclopenta[a]inden-1-yl)methanol]	1040	1140	[1.1x]	4090	11100	1950	[1.87x]					
CNC(=O)OCc1c(COC(=O)NC)c2n(c1C)-c1ccccc1C2 [DA-1100, methyl carbamic acid 3-methyl-2-methylcarbamoyloxymethyl-8H-3a-aza-cyclopenta[a]inden-1-yl methyl ester]	188	126	[0.67x]	297	355	67	[0.36x]					
CCc1c(COC(=O)NC)c(COC(=O)NC)c2n1-c1ccccc1C2 [DA-1101, methyl carbamic acid 3-ethyl-2-methyl carbamoyloxymethyl-8H-3a-aza-cyclopenta[a]inden-1-ylmethyl ester]	68	78	[1.15x]	707	670	99	[1.46x]					
COc1ccc(-c2c(CO)c(CO)c3n2Cc2ccccc2C3)cc1 [DA-1106, [2-Hydroxymethyl-3-(4-methoxyphenyl)-5,10-dihydropyrrolo[1,2-b]isoquinolin-1-yl]methanol]	228	111	[0.49x]	1030	1940	232	[1.02x]					
CNC(=O)OCc1c(COC(=O)NC)c2n(c1C)Cc1ccccc1C2 [DA-1108, methylcarbamic acid 3-methyl-1-methylcarbamoyloxymethyl-5,10-dihydro-pyrrolo[1,2-b]isoquinolin-2-ylmethyl ester]	128	76	[0.59x]	1160	1680	111	[0.87x]					
CNC(=O)OCc1c(COC(=O)NC)c(-c2ccc(OC)cc2)n2c1Cc1ccccc1C2 [DA-1109, methylcarbamic acid 3-(4-methoxyphenyl)-2-methylcarbamoyloxymethyl-5,10-dihydr-pyrrolo[1,2-b]isoquinolin-1-ylmethyl ester]			[0.60x]				[0.88x]	184	111	1110	1310	161
OCc1c(CO)c(-c2ccc(F)c(F)c2)n2c1Cc1ccccc1C2 [DA-1112, [3-(3,4-Difluorophenyl)-2-hydroxymethyl-5,10-dihydropyrrolo[1,2-b]isoquinolin-1-yl]methanol]	1140	1010	[0.89x]	2920	6670	745	[0.66x]					
CNC(=O)OCc1c(COC(=O)NC)c(-c2ccc(F)c(F)c2)n2c1Cc1ccccc1C2 [DA-1113, methylcarbamic acid 3-(3,4-difluorophenyl)-2-methylcarbamoyloxymethyl-5,10-dihydropyrrolo[1,2-b]isoquinolin-1-methyl ester]			[1.06x]				[1.32x]	488	519	358	2710	643
OCc1c(CO)c(-c2ccc(Cl)cc2)n2c1Cc1ccccc1C2 [DA-1116, [3-(4-Chlorophenyl)-2-hydroxymethyl-5,10-dihydropyrrolo[1,2-b]isoquinolin-1-yl]methanol]	600	543	[0.91x]	2640	3270	601	[1.00x]					
